Test system: rabbit skeletal myofibrils (approximately 90% fast fibers)
Assay: Activation of fast skeletal myofibrils (PUMA coupled-enzyme ATPase assay, AC1.4)
Type: biochemical
Settings: concentration at which the compound increased enzymatic activity by 40%, calcium at pCa25

Row | SMILES | Mean AC1.4 (Table 2) | further results
1 | COCCNc1nsc(NCC(C)(C)c2ccc(F)cc2)n1 [[2-(4-fluorophenyl)-2-methylpropyl]{3-[(2-methoxyethyl)amino](1,2,4-thiadiazol-5-yl)}amine] | D (D=>20 uM) | 
2 | COC(=O)N1CCN(CCc2nsc(NCC(C)(C)c3ccc(F)cc3)n2)CC1 [methyl 4-[2-(5-{[2-(4-fluorophenyl)-2-methylpropyl]amino}-1,2,4-thiadiazol-3-yl)ethyl]piperazinecarboxylate] | D (D=>20 uM) | 
3 | NC(=O)c1ccc(-c2nnc(NC[C@]3(c4ncccc4F)C[C@H](F)C3)s2)s1 [5-(5-((3-fluoro-1-(3-fluoropyridin-2-yl)cyclobutyl)methylamino)-1,3,4-thiadiazol-2-yl)thiophene-2-carboxamide] |  | Mean AC1.4 (Table 3): B (B=1-10 uM)
4 | COc1cccc(Cc2nsc(NCCc3ccc(Cl)c(Cl)c3)n2)c1 [[2-(3,4-dichlorophenyl)ethyl]{3-[(3-methoxyphenyl)methyl](1,2,4-thiadiazol-5-yl)}amine] | B (B=1-10 uM) | 
5 | Fc1ccc(Cc2nsc(NCc3ccc(Cl)c(Cl)c3)n2)cc1 [[(3,4-dichlorophenyl)methyl]{3-[(4-fluorophenyl)methyl])1,2,4-thiadiazol-5-yl)}amine] | D (D=>20 uM) | 
6 | Fc1cccnc1C1(CNc2nc(-c3ccccc3)ns2)CCC1 [{[(3-fluoro(2-pyridyl))cyclobutyl]methyl}(3-phenyl(1,2,4-thiadiazol-5-yl))amine] | B (B=1-10 uM) | 
7 | COc1cccc(Cc2nsc(NCCc3cccc(Cl)c3)n2)c1 [[2-(3-chlorophenyl)ethyl]{3-[(3-methoxyphenyl)methyl](1,2,4-thiadiazol-5-yl)}amine] | C (C=10-20 uM) | 
8 | CC(C)(CNc1nc2ccc(C(N)=O)cc2s1)c1ccc(F)cc1 [2-(2-(4-fluorophenyl)-2-methylpropylamino)benzo[d] thiazole-6-carboxamide] |  | Mean AC1.4 (Table 4): A (A=<1 uM)
9 | CC(C)(CNc1nc(C(N)=O)ns1)c1ccc(F)cc1 [5-{[2-(4-Fluorophenyl)-2-methylpropyl]amino}-1,2,4-thiadiazole-3-carboxamide] | C (C=10-20 uM) | 
10 | Cc1ccc(Cc2nsc(NCCc3c(Cl)cccc3Cl)n2)cc1 [[2-(2,6-dichlorophenyl)ethyl]{3-[(4-methylphenyl)methyl](1,2,4-thiadiazol-5-yl)}amine] | D (D=>20 uM) | 
11 | Fc1ccc(Cc2nsc(Nc3ccc(Cl)c(Cl)c3)n2)cc1 [(3,4-dichlorophenyl){3-[(4-fluorophenyl)methyl](1,2,4-thiadiazol-5-yl)}amine] | D (D=>20 uM) | 
12 | NC(=O)c1ccc2sc(NC[C@]3(c4ncccc4F)C[C@H](F)C3)nc2c1 [2-((3-fluoro-1-(3-fluoropyridin-2-yl)cyclobutyl)methylamino)benzo[d] thiazole-5-carboxamide] |  | Mean AC1.4 (Table 4): C (C=10-20 uM)
13 | NC(=O)c1ccc(Cl)c(-c2nnc(NC[C@]3(c4ncccc4F)C[C@H](F)C3)s2)c1 [4-chloro-3-(5-((3-fluoro-1-(3-fluoropyridin-2-yl)cyclobutyl)methylamino)-1,3,4-thiadiazol-2-yl)benzamide] |  | Mean AC1.4 (Table 3): A (A=<1 uM)
14 | N#Cc1ccc2nc(N)sc2c1 [2-aminobenzo[d]thiazole-6-carbonitrile] |  | Mean AC1.4 (Table 4): D (D=>20 uM)
15 | COc1cccnc1C1(CNc2nc3ccc(C#N)cc3s2)CCC1 [2-((1-(3-methoxypyridin-2-yl)cyclobutyl)methylamino)benzo[d] thiazole-6-carbonitrile] |  | Mean AC1.4 (Table 4): D (D=>20 uM)
16 | N#Cc1ccc(F)c(-c2nnc(NC[C@]3(c4ncccc4F)C[C@H](F)C3)s2)c1 [4-fluoro-3-(5-((3-fluoro-1-(3-fluoropyridin-2-yl)cyclobutyl)methylamino)-1,3,4-thiadiazol-2-yl)benzonitrile] |  | Mean AC1.4 (Table 3): B (B=1-10 uM)
17 | CC(C)(CNc1nc(-c2ccccn2)ns1)c1ccc(F)cc1 [[2-(4-fluorophenyl)-2-methylpropyl](3-(2-pyridyl)(1,2,4-thiadiazol-5-yl))amine] | B (B=1-10 uM) | 
18 | CC(C)(CNc1nsc(-c2cccc(C(N)=O)c2)n1)c1ccc(F)cc1 [3-(3-{[2-(4-Fluorophenyl)-2-methylpropyl]amino}-1,2,4-thiadiazol-5-yl)benzamide] | B (B=1-10 uM) | 
19 | CC(C)(CNc1nc(CN2CCCC2)ns1)c1ccc(F)cc1 [[2-(4-fluorophenyl)-2-methylpropyl][3-(pyrrolidinylmethyl)(1,2,4-thiadiazol-5-yl)]amine] | D (D=>20 uM) | 
20 | CC(C)(CNc1nc2cc(Cl)ccc2s1)c1ccc(F)cc1 [5-chloro-N-(2-(4-fluorophenyl)-2-methylpropyl)benzo[d]thiazol-2-amine] |  | Mean AC1.4 (Table 4): B (B=1-10 uM)
21 | NC(=O)c1ccc(F)c(-c2nnc(NCC3(c4ncccc4F)CCC3)s2)c1 [4-fluoro-3-(5-((1-(3-fluoropyridin-2-yl)cyclobutyl)methylamino)-1,3,4-thiadiazol-2-yl)benzamide] |  | Mean AC1.4 (Table 3): A (A=<1 uM)
22 | COc1ccc(CCNc2nc(Cc3ccc(C)cc3)ns2)cc1 [[2-(4-methoxyphenyl)ethyl]{3-[(4-methylphenyl)methyl](1,2,4-thiadiazol-5-yl)}amine] | D (D=>20 uM) | 

Row | SMILES | Mean AC1.4 (Table 2) | further results
23 | Cn1cc(-c2nsc(NCC(C)(C)c3ccc(F)cc3)n2)cn1 [[2-(4-fluorophenyl)-2-methylpropyl][3-(1-methylpyrazol-4-yl)(1,2,4-thiadiazol-5-yl] | B (B=1-10 uM) | 
24 | NC(=O)c1ccccc1-c1nnc(NCC2(c3ncccc3F)CCC2)s1 [2-(5-((1-(3-fluoropyridin-2-yl)cyclobutyl)methylamino)-1,3,4-thiadiazol-2-yl)benzamide] |  | Mean AC1.4 (Table 3): D (D=>20 uM)
25 | COc1cccc(Cc2nsc(NCCc3ccccc3Cl)n2)c1 [[2-(2-chlorophenyl)ethyl]{3-[(3-methoxyphenyl)methyl](1,2,4-thiadiazol-5-yl)}amine] | D (D=>20 uM) | 
26 | CC(C)Cc1nsc(NCC(C)(C)c2ccc(Cl)cc2)n1 [[2-(4-chlorophenyl)-2-methylpropyl][3-(2-methylpropyl)(1,2,4-thiadiazol-5-yl)]amine] | B (B=1-10 uM) | 
27 | Fc1ccc(Cc2nsc(NCCc3ccccc3Cl)n2)cc1 [[2-(2-chlorophenyl)ethyl]{3-[(4-fluorophenyl)methyl](1,2,4-thiadiazol-5-yl)}amine] | D (D=>20 uM) | 
28 | Cc1ccc(Cc2nsc(NCCc3ccc(Cl)c(Cl)c3)n2)cc1 [[2-(3,4-dichlorophenyl)ethyl]{3-[(4-methylphenyl)methyl](1,2,4-thiadiazol-5-yl)}amine] | B (B=1-10 uM) | 
29 | Fc1cccnc1[C@]1(CNc2nnc(-c3cc(Br)ccc3Cl)s2)C[C@H](F)C1 [5-(5-bromo-2-chlorophenyl)-N-(((cis)-3-fluoro-1-(3-fluoropyridin-2-yl)cyclobutyl)methyl)-1,3,4-thiadiazol-2-amine] |  | Mean AC1.4 (Table 3): A (A=<1 uM)
30 | N#Cc1ccc2nc(NCC3(c4ccccn4)CCC3)sc2c1 [2-((1-(pyridin-2-yl)cyclobutyl)methylamino)benzo[d] thiazole-6-carbonitrile] |  | Mean AC1.4 (Table 4): C (C=10-20 uM)
31 | CC(C)(CNc1nc2cccc(C#N)c2s1)c1ccc(F)cc1 [2-(2-(4-fluorophenyl)-2-methylpropylamino)benzo[d] thiazole-7-carbonitrile] |  | Mean AC1.4 (Table 4): B (B=1-10 uM)
32 | CC(C)(CNc1nc(Cc2cccc(O)c2)ns1)c1ccc(Cl)cc1 [3-[(5-{[2-(4-chlorophenyl)-2-methylpropyl]amino}-1,2,4-thiadiazol-3-yl)methyl]phenol] | A (A=<1 uM) | 
33 | Fc1cccnc1C1(CNc2nc3ccccc3s2)CCC1 [N-((1-(3-fluoropyridin-2-yl)cyclobutyl)methyl)benzo[d] thiazol-2-amine] |  | Mean AC1.4 (Table 4): C (C=10-20 uM)
34 | C[C@H](CNc1nc(Cc2cccc(O)c2)ns1)c1ccc(F)cc1 [3-[(5-{[(2S)-2-(4-fluorophenyl)propyl]amino}-1,2,4-thiadiazol-3-yl)methyl]phenol] | A (A=<1 uM) | 
35 | CC(C)(CNc1nc(-c2ccc(F)c(C#N)c2)ns1)c1ccc(F)cc1 [2-fluoro-5-(5-{[2-(4-fluorophenyl)-2-methylpropyl]amino}(1,2,4-thiadiazol-3-yl))benzenecarbonitrile] | B (B=1-10 uM) | 
36 | COc1cccc(Cc2nsc(NCCc3cccc(C(F)(F)F)c3)n2)c1 [{3-[(3-methoxyphenyl)methyl](1,2,4-thiadiazol-5-yl)}{2-[3-(trifluoromethyl)phenyl]ethyl}amine] | D (D=>20 uM) | 
37 | N#Cc1ccc2nc(NCC3(c4ncccc4F)CCC3)sc2c1 [2-((1-(3-fluoropyridin-2-yl)cyclobutyl)methylamino)benzo[d] thiazole-6-carbonitrile] |  | Mean AC1.4 (Table 4): B (B=1-10 uM)
38 | COc1cncc(-c2nsc(NCC(C)(C)c3ccc(F)cc3)n2)c1 [[2-(4-fluorophenyl)-2-methylpropyl][3-(5-methoxy(3-pyridyl))(1,2,4-thiadiazol-5-yl)]amine] | B (B=1-10 uM) | 
39 | Fc1cccnc1C1(CNc2nc3ccc(Cl)cc3s2)CCC1 [6-chloro-N-((1-(3-fluoropyridin-2-yl)cyclobutyl)methyl)benzo[d] thiazol-2-amine] |  | Mean AC1.4 (Table 4): B (B=1-10 uM)
40 | NC(=O)c1ccc2nc(NCC3(c4ccc(F)cc4)CCC3)sc2c1 [2-((1-(4-fluorophenyl)cyclobutyl)methylamino) benzo[d]thiazole-6-carboxamide] |  | Mean AC1.4 (Table 4): A (A=<1 uM)
41 | C[C@H](CNc1nc(-c2cn[nH]c2)ns1)c1ccc(F)cc1 [[(2S)-2-(4-fluorophenyl)propyl](3-pyrazol-4-yl(1,2,4-thiadiazol-5-yl))amine] | B (B=1-10 uM) | 
42 | CC(C)(CNc1nc2c(C(N)=O)cccc2s1)c1ccc(F)cc1 [2-(2-(4-fluorophenyl)-2-methylpropylamino)benzo[d] thiazole-4-carboxamide] |  | Mean AC1.4 (Table 4): C (C=10-20 uM)
43 | COc1ccc(CCNc2nc(Cc3cccc(OC)c3)ns2)cc1 [[2-(4-methoxyphenyl)ethyl]{3-[(3-methoxyphenyl)methyl](1,2,4-thiadiazol-5-yl)}amine] | D (D=>20 uM) | 
44 | NC(=O)c1ccc2nc(NCC3(c4ccccn4)CCC3)sc2c1 [2-((1-(pyridin-2-yl)cyclobutyl)methylamino)benzo[d] thiazole-6-carboxamide] |  | Mean AC1.4 (Table 4): B (B=1-10 uM)

Reference: patent publication US9278962B2 (Cytokinetics, Inc., priority 2011, dated 2016)
